# Patent publication US6893642B1, “Algae protein polysaccharide extraction and use thereof” (priority 1999, dated 2005)
# Key:
# [1] = target: T1, PTK picked up from A431 cell containing the EGFR (Homo sapiens, UniProt P00533); assay: Phosphorylation of protein tyrosine kinase (PTK); format: biochemical
# T1 construct: we used A431 cell containing the EGFR for picking up PTK; endogenous in cells; host or cells: A431 cells
# Excerpt: Epidermal growth factor receptor (EGFR), a PTK of receptor type, is a single-stranded trans-membrane glycoprotein consisting of 1186 amino acids, whose molecular weight is […], and exists extensively on the epithelial membrane of the mammals. The C end of the EGFR can recognize and activate many cellular substrates after phosphorylated, then effect on metabolization, growth and carcinogenesis of a cell. […] In our research, we used A431 cell containing the EGFR for picking up PTK, so as to observe the effect of the proteoglycan extract of spirulina on phosphorylation of PTK.
# mice injected with CTX = assay: T-lymphocyte test; format: in vivo; details: positive control: CTX 10 mg/kg/d then water p.o.
# Description: Mice, body weight of 18-22 g, were randomly divided into a blank control group, positive control group, a higher dose group and a lower dose group, with 10 mice per group. The mice in the treated groups were injected with CTX at a dose of 10 mg/kg/d, and then treated with proteoglycan extracts of Spirulina via p.o., at the same dose as above. The mice in the positive control group were treated with CTX at a dose of 10 mg/kg/d, and then treated with water via p.o. the mice in the control group only were treated with water via p.o. after the treatment was continuously taken for 10 days, the treatment was stopped for 2 days. Blood was harvested from eye sockets of the mice for lymphocyte slices. After incubation and dyeing, T-lymphocyte percentage was determined.
# T1 sequence (P00533 25-1210): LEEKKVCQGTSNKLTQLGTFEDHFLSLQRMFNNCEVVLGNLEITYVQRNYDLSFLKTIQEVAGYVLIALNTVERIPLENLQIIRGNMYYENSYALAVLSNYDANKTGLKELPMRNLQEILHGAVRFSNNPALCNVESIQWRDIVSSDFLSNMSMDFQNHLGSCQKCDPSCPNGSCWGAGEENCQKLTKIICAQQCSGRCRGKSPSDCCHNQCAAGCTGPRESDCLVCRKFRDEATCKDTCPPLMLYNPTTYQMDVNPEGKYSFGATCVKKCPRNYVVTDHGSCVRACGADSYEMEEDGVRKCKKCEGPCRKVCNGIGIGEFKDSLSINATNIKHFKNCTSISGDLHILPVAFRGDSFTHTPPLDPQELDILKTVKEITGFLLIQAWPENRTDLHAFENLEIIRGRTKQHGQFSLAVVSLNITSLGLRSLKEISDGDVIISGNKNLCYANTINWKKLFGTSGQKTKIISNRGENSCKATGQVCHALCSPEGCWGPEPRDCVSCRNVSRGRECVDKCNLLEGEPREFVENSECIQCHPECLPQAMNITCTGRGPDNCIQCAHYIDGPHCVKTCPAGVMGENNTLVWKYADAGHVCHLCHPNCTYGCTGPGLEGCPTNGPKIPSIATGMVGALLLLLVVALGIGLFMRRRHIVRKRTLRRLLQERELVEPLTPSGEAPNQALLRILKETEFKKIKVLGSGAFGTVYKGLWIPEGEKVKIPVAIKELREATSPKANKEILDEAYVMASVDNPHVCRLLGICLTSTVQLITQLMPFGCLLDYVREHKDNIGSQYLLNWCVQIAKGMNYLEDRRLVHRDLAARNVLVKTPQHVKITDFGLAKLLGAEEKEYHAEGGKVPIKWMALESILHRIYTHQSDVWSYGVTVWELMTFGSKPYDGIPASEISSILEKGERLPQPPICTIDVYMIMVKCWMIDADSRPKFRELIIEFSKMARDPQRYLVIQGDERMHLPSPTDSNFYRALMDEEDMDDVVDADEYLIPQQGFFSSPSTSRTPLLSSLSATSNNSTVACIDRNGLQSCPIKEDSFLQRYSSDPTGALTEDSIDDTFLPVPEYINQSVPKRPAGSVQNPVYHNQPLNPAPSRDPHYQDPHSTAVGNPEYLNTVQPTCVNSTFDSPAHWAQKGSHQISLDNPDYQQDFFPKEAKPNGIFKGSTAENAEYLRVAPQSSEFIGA
SMILES,"inhibition rate ([1]; Results 1, positive control, 2.5 mM)","inhibition rate ([1]; Results 2, positive control, 0.25 mM)","inhibition rate ([1]; Results 3, positive control, 0.25 mM)",T-lymphocyte percentage (mice injected with CTX)
N#CC(C#N)=Cc1cc(O)c(O)c(O)c1 [tyrphostin 25],"Positive control: 2.5 mM tyrphostin 25, inhibition rate: 100%","Positive control: 0.25 mM tyrphostin 25, inhibition rate: 86.1%","Positive control: 0.25 mM tyrphostin 25, inhibition rate: 80.5%",
O=P1(N(CCCl)CCCl)NCCCO1 (stereo not shown) [CTX],,,,25.6 ± 2.51%
